pIC50: −log10 of the molar value. Like-named read-outs stand apart in the source and are kept apart here.
Key:
[1] = biological target: T1, farnesyl protein transferase (FPT) (Rattus norvegicus, UniProt Q02293+Q04631); experiment: In vitro enzyme assay: inhibition of farnesyl protein transferase (transfer of [3H]farnesyl to Ras-CVLS); assay type: biochemical
T1 construct: were partially purified from rat brain by ammonium sulfate fractionation followed by Q-Sepharose; from tissue; host or cells: rat brain
Experimental: • 1. In vitro enzyme assays: Inhibition of farnesyl protein transferase and geranylgeranyl protein transferase. […] Human farnesyl protein transferase was also expressed in E. coli, using cDNA clones encoding both the a and b subunits. […] Human farnesyl protein transferase was partially-purified from the soluble protein fraction of E. coli as described above. […] Two forms of val^12-Ha-Ras protein were prepared as substrates for these enzymes, differing in their carboxy terminal sequence. One form terminated in cysteine-valine-leucine-serine (Ras-CVLS) the other in cystein-valine-leucine-leucine (Ras-CVLL). Ras-CVLS is a substrate for the farnesyl protein transferase while Ras-CVLL is a substrate for geranylgeranyl protein transferase I. The cDNAs encoding these proteins were constructed so that the proteins contain an amino-terminal extension of 6 histidine residues. Both proteins were expressed in Escherichia coli and purified using metal chelate affinity chromatography. The radiolabelled isoprenyl pyrophosphate substrates, [^3H]farnesyl pyrophosphate and [^3H]geranylgeranyl pyrophosphate, were purchased from DuPont/New England Nuclear. […] The reaction was allowed to proceed for 30 minutes at room temperature and then stopped with 0.5 ml of 4% sodium dodecyl sulfate (SDS) followed by 0.5 ml of cold 30% TCA. Samples were allowed to sit on ice for 45 minutes and precipitated Ras protein was then collected on GF/C filter paper mats using a Brandel cell harvester. […] Percent inhibition was calculated relative to the DMSO vehicle control. The geranylgeranyl protein transferase I assay was essentially identical to the farnesyl protein transferase assay described above, with two exceptions: [^3H]geranylgeranylpyrophosphate replaced farnesyl pyrophosphate as the isoprenoid donor and Ras-CVLL was the protein acceptor. […] Cell-Based Assay: Transient expression of val^12-Ha-Ras-CVLS and val^12-Ha-Ras-CVLL in COS monkey kidney cells: Effect of farnesyl protein transferase inhibitors on Ras processing and on disordered cell growth induced by transforming Ras. COS monkey kidney cells were transfected by electroporation with the plasmid pSV-SPORT (Gibco/BRL) containing a cDNA insert encoding either Ras-CVLS or Ras-CVLL, leading to transient overexpression of a Ras substrate for either farnesyl protein transferase or geranylgeranyl protein transferase I, respectively (see above). Following electroporation, cells were plated into 6-well tissue culture dishes containing 1.5 ml of Dulbecco's-modified Eagle's media (GIBCO, Inc.) supplemented with 10% fetal calf serum and the appropriate farnesyl protein transferase inhibitors. After 24 hours, media was removed and fresh media containing the appropriate drugs was re-added. 48 hours after electroporation cells were examined under the microscope to monitor disordered cell growth induced by transforming Ras. Cells expressing transforming Ras become more rounded and refractile and overgrow the monolayer, reminiscent of the transformed phenotype. Cells were then photographed, washed twice with 1 ml of cold phosphate-buffered saline (PBS) and removed from the dish by scraping with a rubber policeman into 1 ml of a buffer containing 25 mM Tris, pH 8.0; 1 mM ethylenediamine tetraacetic acid; 1 mM phenylmethylsulfonyl fluoride; […] leupeptin; and 0.1 mM pepstatin. Cells were lysed by homogenization and cell debris was removed by centrifugation at 2000 x g for 10 min. Cellular protein was precipitated by addition of ice-cold trichloroacetic acid and redissolved in […] of SDS-electrophoresis sample buffer. […] Proteins resolved on the gels were electroblotted onto nitrocellulose membranes for immunodetection. […] After washing, membranes were incubated for one hour at room temperature with a 1:5000 dilution of secondary antibody, rabbit anti-rat IgG conjugated to horseradish peroxidase, in PBS containing 1% fetal calf serum.

[2] = biological target: T2, geranylgeranyl protein transferase (GGPT) I (Rattus norvegicus, UniProt P53610+Q04631); experiment: In vitro enzyme assay: inhibition of geranylgeranyl protein transferase I (Ras-CVLL as acceptor); assay type: biochemical; details: Table 2; Ras-CVLL as isoprenoid acceptor
T2 construct: geranylgeranyl protein transferase (GGPT) I were partially purified from rat brain; from tissue; host or cells: rat brain
Text: • 1. In vitro enzyme assays: Inhibition of farnesyl protein transferase and geranylgeranyl protein transferase. Both farnesyl protein transferase (FPT) and geranylgeranyl protein transferase (GGPT) I were partially purified from rat brain by ammonium sulfate fractionation followed by Q-Sepharose (Pharmacia, Inc.) anion exchange chromatography essentially as described by Yokoyama et al (Yokoyama, K., et al., (1991), A protein geranylgeranyltransferase from bovine brain: Implications for protein prenylation specificity, Proc. Natl. Acad. Sci USA 88: 5302-5306, the disclosure of which is incorporated herein by reference thereto). Human farnesyl protein transferase was also expressed in E. coli, using cDNA clones encoding both the a and b subunits. The methods used were similar to those published (Omer, C. et al., (1993), Characterization of recombinant human farnesyl protein transferase: Cloning, expression, farnesyl diphosphate binding, and functional homology with yeast prenyl-protein transferases, Biochemistry 32:5167-5176). Human farnesyl protein transferase was partially-purified from the soluble protein fraction of E. coli as described above. The tricyclic farnesyl protein transferase inhibitors disclosed herein inhibited both human and rat enzyme with similar potencies. Two forms of val^12-Ha-Ras protein were prepared as substrates for these enzymes, differing in their carboxy terminal sequence. One form terminated in cysteine-valine-leucine-serine (Ras-CVLS) the other in cystein-valine-leucine-leucine (Ras-CVLL). Ras-CVLS is a substrate for the farnesyl protein transferase while Ras-CVLL is a substrate for geranylgeranyl protein transferase I. The cDNAs encoding these proteins were constructed so that the proteins contain an amino-terminal extension of 6 histidine residues. Both proteins were expressed in Escherichia coli and purified using metal chelate affinity chromatography. The radiolabelled isoprenyl pyrophosphate substrates, [^3H]farnesyl pyrophosphate and [^3H]geranylgeranyl pyrophosphate, were purchased from DuPont/New England Nuclear. Several methods for measuring farnesyl protein transferase activity have been described (Reiss et al 1990, Cell 62: 81; Schaber et al 1990, J. Biol. Chem. 265: 14701; Manne et al 1990, PNAS 87: 7541; and Barbacid & Manne 1993, U.S. Patent No. 5,185,248). The activity was assayed by measuring the transfer of [^3H]farnesyl from [^3H]farnesyl pyrophosphate to Ras-CVLS using conditions similar to those described by Reiss et al. 1990 (Cell 62: 81) The reaction mixture contained 40 mM Hepes, pH 7.5; 20 mM magnesium chloride; 5 mM dithiothreitol; 0.25 µM [^3H]farnesyl pyrophosphate; […] Q-Sepharose-purified farnesyl protein transferase; the indicated concentration of tricyclic compound or dimethylsulfoxide (DMSO) vehicle control (5% DMSO final); and […] Ras-CVLS in a total volume of […]. The reaction was allowed to proceed for 30 minutes at room temperature and then stopped with 0.5 ml of 4% sodium dodecyl sulfate (SDS) followed by 0.5 ml of cold 30% TCA. Samples were allowed to sit on ice for 45 minutes and precipitated Ras protein was then collected on GF/C filter paper mats using a Brandel cell harvester. Filter mats were washed once with 6% TCA, 2% SDS and radioactivity was measured in a Wallac 1204 Betaplate BS liquid scintillation counter. Percent inhibition was calculated relative to the DMSO vehicle control. The geranylgeranyl protein transferase I assay was essentially identical to the farnesyl protein transferase assay described above, with two exceptions: [^3H]geranylgeranylpyrophosphate replaced farnesyl pyrophosphate as the isoprenoid donor and Ras-CVLL was the protein acceptor. This is similar to the assay reported by Casey et al (Casey, P.J., et al., (1991), Enzymatic modification of proteins with a geranylgeranyl isoprenoid, Proc. Natl. Acad. Sci, USA 88: 8631-8635, the disclosure of which is incorporated herein by reference thereto). • 2. […]

[3] = test system: Ras-CVLS processing in COS monkey kidney cells; experiment: COS cell assay: inhibition of Ras-CVLS processing (Western blot); assay type: cell-based
Text: • 1. In vitro enzyme assays: Inhibition of farnesyl protein transferase and geranylgeranyl protein transferase. Both farnesyl protein transferase (FPT) and geranylgeranyl protein transferase (GGPT) I were partially purified from rat brain by ammonium sulfate fractionation followed by Q-Sepharose (Pharmacia, Inc.) anion exchange chromatography essentially as described by Yokoyama et al (Yokoyama, K., et al., (1991), A protein geranylgeranyltransferase from bovine brain: Implications for protein prenylation specificity, Proc. Natl. Acad. Sci USA 88: 5302-5306, the disclosure of which is incorporated herein by reference thereto). Human farnesyl protein transferase was also expressed in E. coli, using cDNA clones encoding both the a and b subunits. The methods used were similar to those published (Omer, C. et al., (1993), Characterization of recombinant human farnesyl protein transferase: Cloning, expression, farnesyl diphosphate binding, and functional homology with yeast prenyl-protein transferases, Biochemistry 32:5167-5176). Human farnesyl protein transferase was partially-purified from the soluble protein fraction of E. coli as described above. […] Two forms of val^12-Ha-Ras protein were prepared as substrates for these enzymes, differing in their carboxy terminal sequence. One form terminated in cysteine-valine-leucine-serine (Ras-CVLS) the other in cystein-valine-leucine-leucine (Ras-CVLL). Ras-CVLS is a substrate for the farnesyl protein transferase while Ras-CVLL is a substrate for geranylgeranyl protein transferase I. The cDNAs encoding these proteins were constructed so that the proteins contain an amino-terminal extension of 6 histidine residues. Both proteins were expressed in Escherichia coli and purified using metal chelate affinity chromatography. The radiolabelled isoprenyl pyrophosphate substrates, [^3H]farnesyl pyrophosphate and [^3H]geranylgeranyl pyrophosphate, were purchased from DuPont/New England Nuclear. Several methods for measuring farnesyl protein transferase activity have been described (Reiss et al 1990, Cell 62: 81; Schaber et al 1990, J. Biol. Chem. 265: 14701; Manne et al 1990, PNAS 87: 7541; and Barbacid & Manne 1993, U.S. Patent No. 5,185,248). […] The reaction was allowed to proceed for 30 minutes at room temperature and then stopped with 0.5 ml of 4% sodium dodecyl sulfate (SDS) followed by 0.5 ml of cold 30% TCA. Samples were allowed to sit on ice for 45 minutes and precipitated Ras protein was then collected on GF/C filter paper mats using a Brandel cell harvester. Filter mats were washed once with 6% TCA, 2% SDS and radioactivity was measured in a Wallac 1204 Betaplate BS liquid scintillation counter. Percent inhibition was calculated relative to the DMSO vehicle control. The geranylgeranyl protein transferase I assay was essentially identical to the farnesyl protein transferase assay described above, with two exceptions: [^3H]geranylgeranylpyrophosphate replaced farnesyl pyrophosphate as the isoprenoid donor and Ras-CVLL was the protein acceptor. […] Cell-Based Assay: Transient expression of val^12-Ha-Ras-CVLS and val^12-Ha-Ras-CVLL in COS monkey kidney cells: Effect of farnesyl protein transferase inhibitors on Ras processing and on disordered cell growth induced by transforming Ras. COS monkey kidney cells were transfected by electroporation with the plasmid pSV-SPORT (Gibco/BRL) containing a cDNA insert encoding either Ras-CVLS or Ras-CVLL, leading to transient overexpression of a Ras substrate for either farnesyl protein transferase or geranylgeranyl protein transferase I, respectively (see above). Following electroporation, cells were plated into 6-well tissue culture dishes containing 1.5 ml of Dulbecco's-modified Eagle's media (GIBCO, Inc.) supplemented with 10% fetal calf serum and the appropriate farnesyl protein transferase inhibitors. After 24 hours, media was removed and fresh media containing the appropriate drugs was re-added.

[4] = test system: T24-BAG4 human bladder carcinoma cells expressing an activated H-ras gene; experiment: Cell Mat Assay, T24 tumor cells; assay type: cell-based; details: read-out: Tumor (T-24) IC50
[5] = test system: DLD-1-BAG human colon carcinoma cells expressing as activated K-ras gene; experiment: Cell Mat Assay, DLD-1 tumor cells; assay type: cell-based; details: Mat assay
[6] = test system: SW620-BAG human colon carcinoma cells expressing an activated K-ras gene; experiment: Cell Mat Assay, SW620 tumor cells; assay type: cell-based; details: Mat assay
[7] = test system: Normal human HEPM fibroblasts; experiment: Cell Mat Assay, normal cell mat; assay type: cell-based; details: normal monolayer
[8] = test system: DLD-1 (human colon carcinoma cells, ATCC # CCL 221); experiment: In Vivo Anti-Tumor Studies, subcutaneous DLD-1 tumors; parameters: species or system athymic nu/nu female mice; details: Mus musculus, DLD-1, po, QID, 4 weeks, range over the listed compounds; for inhibition in vivo at 10 mg/kg: 10 mg/kg p.o.; for inhibition in vivo at 50 mg/kg: 50 mg/kg p.o.
Text: Tumor cells (5 X 10^5 to 8 X 10^6) of DLD-1 (human colon carcinoma cells, ATCC # CCL 221) are innolculated subcutaneously into the flank of 5-6 week o;d athymic nu/nu female mice.

[9] = Table 2, comparison with GGPT, read-out: ENZYME INHIBITION FPT IC50

| pIC50 ([1]; Table 1, partially purified rat brain FPT, Ras-CVLS, read-out: FPT IC50) | pIC50 ([4]; Homo sapiens) | SMILES | pIC50 ([1]; FPT IC50, Table 1, partially purified rat brain FPT, Ras-CVLS) | pIC50 [1, 9] | pIC50 [2] | pIC50 [3] | pIC50 [4] | pIC50 [5] | pIC50 [6] | pIC50 [7] | inhibition in vivo at 10 mg/kg [8] [%] | inhibition in vivo at 50 mg/kg [8] [%] | pIC50 ([7]; Homo sapiens, Fibroblast) |
| --- | --- | --- | --- | --- | --- | --- | --- | --- | --- | --- | --- | --- | --- |
|  |  | O=C(Cc1cc[n+]([O-])cc1)N1CCC(=C2c3ncc(Br)cc3CCc3cc(Cl)cc(Br)c32)CC1 (single isomer, unassigned) [Example 7B] | > 8.52 | > 8.52 | < 4.18 |  |  |  |  |  |  |  |  |
|  |  | NC(=O)N1CCC(CC(=O)N2CCC(=C3c4ncc(Br)cc4CCc4cc(Cl)cc(Br)c43)CC2)CC1 (single isomer, unassigned) [Example 8B] |  |  | < 4.22 | 6.55 | > 5.80 | > 5.80 | 5.51 | < 4.60 | 7 to 50 | 35.4 to 83 |  |
| 7.34 | 5.51 | NC(=O)N1CCC(CC(=O)N2CCC(C3c4ccc(Cl)cc4CCc4cc(Br)cnc43)CC2)CC1 (stereo not drawn) [Example 4] |  | 7.34 | < 4.45 |  |  |  |  |  | 7 to 50 | 35.4 to 83 | < 4.60 |
